We go through 27 compounds from US20240150334A1, “HSD17B13 INHIBITORS AND/OR DEGRADERS” (Pfizer Inc., priority 2022, published 2024).

Where a name gives a salt, the structure may show the parent alone.

Chain of wild type human HSD17B13 (Q7Z5P4 20-300): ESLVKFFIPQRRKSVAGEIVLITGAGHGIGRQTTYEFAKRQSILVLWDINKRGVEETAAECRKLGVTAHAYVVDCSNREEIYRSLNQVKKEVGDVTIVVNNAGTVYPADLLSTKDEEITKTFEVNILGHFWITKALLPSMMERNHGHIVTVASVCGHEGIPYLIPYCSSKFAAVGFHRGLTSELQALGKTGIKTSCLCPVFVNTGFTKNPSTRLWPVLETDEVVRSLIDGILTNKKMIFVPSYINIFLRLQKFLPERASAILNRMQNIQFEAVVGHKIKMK

This assay has as its target wild type human HSD17B13 (Homo sapiens (Human), UniProt Q7Z5P4). Description: HEK_Beta-Est LCMS_IC50_Tekcel, whole-cell HEK-HSD17B13 inhibition assay, estrone production by LCMS. The format is cell-based. The settings on record: geometric mean, HEK cells stably expressing wild type human HSD17B13, 25 μM FAC beta-estradiol, read-out: HEK_Beta-Est LCMS_IC50—Tekcel GMean IC50. The method, then: HEK_Beta-Est LCMS_IC50_Tekcel
Inhibition potency of test compounds was determined using a whole-cell HEK-HSD17B13 inhibition assay, utilizing a LCMS readout.
HSD17B13 uses the oxidized form of nicotinamide adenine dinucleotide (NAD+) as a cofactor during metabolism of beta-estradiol (substrate), converting NAD+ to the reduced form (NADH) and beta-estradiol to its product (estrone). Estrone production is quantified by LCMS, and used as a measure of HSD17B13 enzyme activity.
([…]: 5% CO2). […] Growth media was then removed from the cell plates and replaced with 10 μL of 2×FAC test compound, and incubated for 1 hour (with lid) at 37° C. […] The reaction was incubated for 2 hours (with lid) at 37° C. […] Amount of product (estrone) was then quantified by LCMS. Data expressed as product area ratio (PAR) were then normalized to control wells using Activity Base (IDBS). Zero percent effect (ZPE) was defined as PAR generated from uninhibited HSD17B13 (vehicle control).
Take `O=C(NC[C@H]1CC[C@H](n2cc3ccc(-c4csc(C5CC5)n4)cc3n2)CC1)c1cc(F)c(O)c(F)c1` [Example 85, N-({(1r,4r)-4-[6-(2-cyclopropyl-1,3-thiazol-4-yl)-2H-indazol-2-yl]cyclohexyl}methyl)-3,5-difluoro-4-hydroxybenzamide]: the half-inhibitory concentration (IC50) – broadly, the concentration at which inhibition is half-maximal – came out at 180 nM.

On to `O=C(NC[C@H]1CC[C@H](n2cc3ccc(-c4cnc5[nH]ccc5c4)cc3n2)CC1)c1cc(F)c(O)c(F)c1` [Example 112, 3,5-difluoro-4-hydroxy-N-({(1r,4r)-4-[6-(1H-pyrrolo[2,3-b]pyridin-5-yl)-2H-indazol-2-yl]cyclohexyl}methyl) benzamide, trifluoroacetate salt], for which the IC50 came out at 220 nM.

For `O=C(NC[C@]12CC[C@](n3cc4ccc(-c5ncccn5)cc4n3)(CC1)CC2)c1cc(F)c(O)c(F)c1` [Example 207, 3,5-difluoro-4-hydroxy-N-({4-[6-(pyrimidin-2-yl)-2H-indazol-2-yl]bicyclo [2.2.2]octan-1-yl}methyl)benzamide], the IC50 was 140 nM.

For the compound `Cn1ncc(-c2ccc3cn([C@H]4CC[C@H](CNC(=O)c5cc(F)c(O)c(F)c5)CC4)nc3c2)n1` [Example 92, 3,5-difluoro-4-hydroxy-N-({(1r,4r)-4-[6-(2-methyl-2H-1,2,3-triazol-4-yl)-2H-indazol-2-yl]cyclohexyl}methyl)benzamide], the IC50 stood at 130 nM.

For `O=C(NC[C@H]1CC[C@H](n2cc3ccc(-c4csc5cncn45)cc3n2)CC1)c1cc(F)c(O)c(F)c1` [Example 84, 3,5-difluoro-4-hydroxy-N-({(1r,4r)-4-[6-(imidazo[5,1-b][1,3]thiazol-3-yl)-2H-indazol-2-yl]cyclohexyl}methyl) benzamide, trifluoroacetate salt], the IC50 is 390 nM.

Take `Cc1cnc(-c2ccc3cn([C@H]4CC[C@H](CNC(=O)c5cc(F)c(O)c(F)c5)CC4)nc3c2)s1` [Example 115, 3,5-difluoro-4-hydroxy-N-({(1r,4r)-4-[6-(5-methyl-1,3-thiazol-2-yl)-2H-indazol-2-yl]cyclohexyl}methyl) benzamide]: the IC50 was 190 nM.

Regarding `O=C(NC[C@H]1CC[C@H](n2cc3ccc(-c4cnsc4)cc3n2)CC1)c1cc(F)c(O)c(F)c1` [Example 100, 3,5-difluoro-4-hydroxy-N-({(1r,4r)-4-[6-(1,2-thiazol-4-yl)-2H-indazol-2-yl]cyclohexyl}methyl)benzamide], the IC50 was 65 nM.

Consider `Cn1cc(-c2ccn3cc([C@H]4CC[C@H](CNC(=O)c5cc(F)c(O)c(F)c5F)CC4)nc3c2)cn1` [Example 30, 2,3,5-trifluoro-4-hydroxy-N-({(1r,4r)-4-[7-(1-methyl-1H-pyrazol-4-yl)imidazo[1,2-a]pyridin-2-yl]cyclohexyl}methyl) benzamide], for which the IC50 stood at 360 nM.

Regarding `O=C(NC[C@H]1CC[C@H](n2cc3ccc(-n4cc(C(F)(F)F)cn4)cc3n2)CC1)c1cc(F)c(O)c(F)c1F` [Example 11, 2,3,5-Trifluoro-4-hydroxy-N-{[(1r,4r)-4-{6-[4-(trifluoromethyl)-1H-pyrazol-1-yl]-2H-indazol-2-yl}cyclohexyl]methyl}benzamide, trifluoroacetate salt], the IC50 is 240 nM.

Consider `N#Cc1cccc(-c2ccc3nn([C@H]4CC[C@H](CNC(=O)c5cc(F)c(O)c(F)c5)CC4)cc3c2)c1` [Example 156, N-({(1r,4r)-4-[5-(3-cyanophenyl)-2H-indazol-2-yl]cyclohexyl}methyl)-3,5-difluoro-4-hydroxybenzamide], for which the IC50 came to 170 nM.

On to `O=C(NC[C@H]1CC[C@H](n2cc3ccc(-c4ccn5nccc5c4)cc3n2)CC1)c1cc(F)c(O)c(F)c1` [Example 89, 3,5-difluoro-4-hydroxy-N-({(1r,4r)-4-[6-(pyrazolo[1,5-a]pyridin-5-yl)-2H-indazol-2-yl]cyclohexyl}methyl) benzamide, trifluoroacetate salt], for which the IC50 stood at 130 nM.

In the case of `O=C(NC[C@H]1CC[C@H](c2nc(-c3cnc(C(F)(F)F)cn3)no2)CC1)c1cc(F)c(O)cc1F` [Example 149, 2,5-difluoro-4-hydroxy-N-{[(1r,4r)-4-{3-[5-(trifluoromethyl)pyrazin-2-yl]-1,2,4-oxadiazol-5-yl}cyclohexyl]methyl} benzamide], the half-inhibitory concentration (IC50) came to 430 nM.

`O=C(NC[C@]12CC[C@](n3cc4ccc(-c5cnccn5)cc4n3)(CC1)CC2)c1cc(F)c(O)c(F)c1` [Example 208, 3,5-difluoro-4-hydroxy-N-({4-[6-(pyrazin-2-yl)-2H-indazol-2-yl]bicyclo [2.2.2]octan-1-yl}methyl)benzamide]: the IC50 stood at 120 nM.

Turning to `Cn1nc(-c2noc([C@]34CC[C@](CNC(=O)c5cc(F)c(O)c(F)c5F)(CC3)CC4)n2)ccc1=O` [Example 168, 2,3,5-trifluoro-4-hydroxy-N-({4-[3-(1-methyl-6-oxo-1,6-dihydropyridazin-3-yl)-1,2,4-oxadiazol-5-yl]bicyclo[2.2.2]octan-1-yl}methyl) benzamide], the IC50 was 380 nM.

As for `Cn1cc(-c2ccc3cn([C@]45CC[C@](CNC(=O)c6cc(F)c(O)c(F)c6F)(CC4)CC5)nc3c2)cn1` [Example 209, 2,3,5-trifluoro-4-hydroxy-N-({4-[6-(1-methyl-1H-pyrazol-4-yl)-2H-indazol-2-yl]bicyclo[2.2.2]octan-1-yl}methyl)benzamide], the IC50 is 150 nM.

For the compound `Cc1cccc(-c2noc([C@]34CC[C@](CNC(=O)c5cc(F)c(O)c(F)c5)(CC3)CC4)n2)n1` [Example 194, 3,5-difluoro-4-hydroxy-N-({4-[3-(6-methylpyridin-2-yl)-1,2,4-oxadiazol-5-yl]bicyclo[2.2.2]octan-1-yl}methyl) benzamide], the IC50 worked out at 230 nM.

Regarding `Cn1cc(-c2ccc3cn([C@H]4CC[C@H](CNC(=O)c5cc(F)c(O)c(F)c5)CC4)nc3c2)nn1` [Example 79, 3,5-difluoro-4-hydroxy-N-({(1r,4r)-4-[6-(1-methyl-1H-1,2,3-triazol-4-yl)-2H-indazol-2-yl]cyclohexyl}methyl) benzamide], the IC50 amounted to 370 nM.

Regarding `O=C(NC[C@H]1CC[C@H](n2cc3ccc(-c4cnn5ccccc45)cc3n2)CC1)c1cc(F)c(O)c(F)c1` [Example 80, 3,5-difluoro-4-hydroxy-N-({(1r,4r)-4-[6-(pyrazolo[1,5-a]pyridin-3-yl)-2H-indazol-2-yl]cyclohexyl}methyl) benzamide, trifuoroacetate salt], the IC50 was determined as 200 nM.

Take `Cn1cc(-c2ccc3cn([C@]45CC[C@](CNC(=O)c6cc(F)c(O)c(F)c6)(CC4)CC5)nc3c2)cn1` [Example 204, 3,5-difluoro-4-hydroxy-N-({4-[6-(1-methyl-1H-pyrazol-4-yl)-2H-indazol-2-yl]bicyclo[2.2.2]octan-1-yl}methyl)benzamide]: the IC50 was 99 nM.

For `O=C(NC[C@H]1CC[C@H](n2cc3ccc(-c4csc(N5CCOCC5)n4)cc3n2)CC1)c1cc(F)c(O)c(F)c1` [Example 114, 3,5-difluoro-4-hydroxy-N-{[(1r,4r)-4-{6-[2-(morpholin-4-yl)-1,3-thiazol-4-yl]-2H-indazol-2-yl}cyclohexyl]methyl} benzamide], the IC50 is 170 nM.

Consider `O=C(NC[C@H]1CC[C@H](n2cc3ccc(-c4ncc5cc[nH]c5n4)cc3n2)CC1)c1cc(F)c(O)c(F)c1` [Example 97, 3,5-difluoro-4-hydroxy-N-({(1r,4r)-4-[6-(7H-pyrrolo[2,3-d]pyrimidin-2-yl)-2H-indazol-2-yl]cyclohexyl}methyl) benzamide], for which the IC50 turned out to be 300 nM.

Turning to `O=C(NC[C@H]1CC[C@H](n2cc3ccc(-c4ncc(C5CC5)s4)cc3n2)CC1)c1cc(F)c(O)c(F)c1` [Example 105, N-({(1r,4r)-4-[6-(5-cyclopropyl-1,3-thiazol-2-yl)-2H-indazol-2-yl]cyclohexyl}methyl)-3,5-difluoro-4-hydroxybenzamide], the IC50 was determined as 370 nM.

Consider `COc1cccc(-c2ccc3cn([C@H]4CC[C@H](CNC(=O)c5cc(F)c(O)c(F)c5)CC4)nc3c2)n1` [Example 116, 3,5-difluoro-4-hydroxy-N-({(1r,4r)-4-[6-(6-methoxy-pyridin-2-yl)-2H-indazol-2-yl]cyclohexyl}methyl) benzamide, trifluoroacetate salt], for which the IC50 was 190 nM.

For the compound `O=C(NC[C@H]1CC[C@H](n2cc3ccc(-n4cccn4)cc3n2)CC1)c1cc(F)c(O)c(F)c1F` [Example 158, 2,3,5-trifluoro-4-hydroxy-N-({(1r,4r)-4-[6-(1H-pyrazol-1-yl)-2H-indazol-2-yl]cyclohexyl}methyl) benzamide, trifluoroacetate salt], the IC50 is 190 nM.

In the case of `Cc1cncc(-c2ccc3cn([C@H]4CC[C@H](CNC(=O)c5cc(F)c(O)c(F)c5)CC4)nc3c2)c1` [Example 90, 3,5-difluoro-4-hydroxy-N-({(1r,4r)-4-[6-(5-methylpyridin-3-yl)-2H-indazol-2-yl]cyclohexyl}methyl) benzamide, trifluoroacetate salt], the IC50 came out at 200 nM.

As to `Cn1cc(-c2ccc3nn([C@H]4CC[C@H](CNC(=O)c5cc(F)c(O)c(F)c5)CC4)cc3c2)cn1` [Example 159, 3,5-difluoro-4-hydroxy-N-({(1r,4r)-4-[5-(1-methyl-1H-pyrazol-4-yl)-2H-indazol-2-yl]cyclohexyl}methyl) benzamide, trifluoroacetate salt], the 50% inhibitory concentration (IC50) is 91 nM.

As to `O=C(NC[C@]12CC[C@](n3cc4ccc(-c5cncnc5)cc4n3)(CC1)CC2)c1cc(F)c(O)c(F)c1` [Example 206, 3,5-difluoro-4-hydroxy-N-({4-[6-(pyrimidin-5-yl)-2H-indazol-2-yl]bicyclo [2.2.2]octan-1-yl}methyl)benzamide], the IC50 is 150 nM.
